Measurements reported in ChEMBL document CHEMBL6078680, “Improving the Stability and Anti-Infective Activity of Sea Turtle AMPs Using Multiple Structural Modification Strategies” (J Med Chem, 2024).
Calls of active or inactive are those of the source. No cut-off for these calls is given here. Non-standard residues stand in square brackets, D forms with d. Residues, ends and D or L forms follow the SMILES beside them. Orn = NCCC[C@H](N)C(=O)O

Key:
Enterococcus faecium = assay: Antimicrobial activity against Enterococcus faecium 34 assessed as reduction in microbial growth incubated for 18 hrs by broth microdilution method; type: functional
Escherichia coli [1] = assay: Antimicrobial activity against Escherichia coli CMCC44102 assessed as reduction in microbial growth incubated for 18 hrs by broth microdilution method; type: functional
Pseudomonas aeruginosa = assay: Antimicrobial activity against Pseudomonas aeruginosa CMCC10104 assessed as reduction in microbial growth incubated for 18 hrs by broth microdilution method; type: functional
Staphylococcus aureus [2] = assay: Antimicrobial activity against Staphylococcus aureus CMCC 26003 assessed as reduction in microbial growth incubated for 18 hrs by broth microdilution method; type: functional
Clostridium perfringens = assay: Antimicrobial activity against Clostridium perfringens ATCC 13124 assessed as reduction in microbial growth incubated for 18 hrs by broth microdilution method; type: functional
Staphylococcus aureus [3] = assay: Antimicrobial activity against Staphylococcus aureus ATCC 43300 assessed as reduction in microbial growth incubated for 18 hrs by broth microdilution method; type: functional
Enterococcus faecalis = assay: Antimicrobial activity against Enterococcus faecalis ATCC 29217 assessed as reduction in microbial growth incubated for 18 hrs by broth microdilution method; type: functional
[4] = system: Staphylococcus epidermidis; assay: Antimicrobial activity against Staphylococcus epidermidis assessed as reduction in microbial growth incubated for 18 hrs by broth microdilution method; type: functional
Staphylococcus aureus [5] = assay: Antimicrobial activity against Staphylococcus aureus 08032706 assessed as reduction in microbial growth incubated for 18 hrs by broth microdilution method; type: functional
Peritoneal macrophage [6] = assay: Antiinflammatory activity in mouse Peritoneal macrophage cells assessed as inhibition of LPS-induced TNF-alpha production at 20 microg/ml incubated for 6 hrs by ELISA analysis; type: functional, cell-based; conditions: dose 20.0 µg/ml
Peritoneal macrophage [7] = assay: Antiinflammatory activity in mouse Peritoneal macrophage cells assessed as inhibition of LPS-induced IL-6 production at 20 microg/ml incubated for 6 hrs by ELISA analysis; type: functional, cell-based; conditions: dose 20.0 µg/ml
Acinetobacter baumannii [8] = assay: Drug resistance, ratio of MIC for Acinetobacter baumannii ATCC1960 after 40 passages to MIC for Acinetobacter baumannii ATCC1960 during first exposure; type: functional
Escherichia coli [9] = assay: Drug resistance, ratio of MIC for Escherichia coli ATCC 25922 after 40 passages to MIC for Escherichia coli ATCC 25922 during first exposure; type: functional
Staphylococcus aureus [10] = assay: Antibiofilm activity against Staphylococcus aureus CMCC 26003 assessed as inhibition of biofilm formation incubated for 48 hrs by crystal violet staining based analysis; type: functional, organism-based
Acinetobacter baumannii [11] = assay: Antibiofilm activity against Acinetobacter baumannii ATCC 19606 assessed as inhibition of biofilm formation incubated for 48 hrs by crystal violet staining based analysis; type: functional, organism-based
Staphylococcus aureus [12] = assay: Antibiofilm activity against Staphylococcus aureus CMCC 26003 assessed as biofilm eradication incubated for 24 hrs by crystal violet staining based analysis; type: functional, organism-based
Staphylococcus aureus [13] = assay: Antibiofilm activity against Staphylococcus aureus CMCC 26003 assessed as reduction in biofilm formation at 0.5 times MIC incubated for 24 hrs by crystal violet staining based analysis; type: functional; parameters: scale not given: the % may be the effect or the level left
Staphylococcus aureus [14] = assay: Antibiofilm activity against Staphylococcus aureus CMCC 26003 assessed as biofilm eradication at 0.5 to 2 times MIC incubated for 24 hrs by crystal violet staining based analysis; type: functional
Staphylococcus aureus [15] = assay: Antibiofilm activity against Staphylococcus aureus CMCC 26003 assessed as biofilm eradication at 8 times MIC incubated for 24 hrs by crystal violet staining based analysis; type: functional
Acinetobacter baumannii [16] = assay: Antipersister-activity against Acinetobacter baumannii ATCC 19606 assessed as elimination of persister cells at 50 times MIC preincubated adherent persistent cells with colistin incubation for 24 hrs; type: functional
Cell membrane [17] = assay: Disruption of cell membrane integrity in Escherichia coli ATCC 25922 assessed as cell membrane damage at 5 times MIC measured after 30 mins by scanning electron microscopic analysis; type: subcellular
Cell membrane [18] = assay: Disruption of cell membrane integrity in Staphylococcus aureus CMCC 26003 assessed as cell membrane damage at 5 times MIC measured after 30 mins by scanning electron microscopic analysis; type: subcellular
Staphylococcus aureus [19] = assay: Antimicrobial activity against Staphylococcus aureus CMCC 26003 assessed as fold increase in MIC incubated for 18 hrs in presence of CCCP; type: functional
Escherichia coli [20] = assay: Antibacterial activity against Escherichia coli ATCC 25922 assessed as increase in intracellular ROS production at 1 times MIC by DCFH-DA staining based assay; type: functional, organism-based
Escherichia coli [21] = assay: Antibacterial activity against Escherichia coli ATCC 25922 assessed as increase in intracellular ROS production at 2 to 5 times MIC by DCFH-DA staining based assay; type: functional, organism-based
Staphylococcus aureus [22] = assay: Antibacterial activity against Staphylococcus aureus CMCC 26003 assessed as increase in intracellular ROS production incubated for 1 hr by DCFH-DA staining based assay; type: functional, organism-based
Staphylococcus aureus [23] = assay: Bactericidal activity against Staphylococcus aureus CMCC 26003 assessed as bacterial eradication incubated at 0.5 hrs in presence of thiourea; type: functional, organism-based
[24] = Acute toxicity in BALB/c mouse assessed as mortality at 10 mg/kg, iv measured for 24 hrs; type: organism-based; conditions: in vivo, read-out: Activity
[25] = Acute toxicity in BALB/c mouse assessed as mortality at 15 mg/kg, iv measured for 24 hrs; type: organism-based; conditions: in vivo, read-out: Activity
[26] = Acute toxicity in BALB/c mouse assessed as mortality at 20 mg/kg, iv measured for 24 hrs; type: organism-based; conditions: in vivo, read-out: Activity
[27] = Acute toxicity in BALB/c mouse assessed as mortality at 50 mg/kg, iv measured for 24 hrs; type: organism-based; conditions: in vivo, read-out: Activity
[28] = Acute toxicity in BALB/c mouse assessed as effect on BUN level at 10 mg/kg, iv measured for 24 hrs; type: organism-based; conditions: in vivo
[29] = Acute toxicity in BALB/c mouse assessed as effect on ALT level at 10 mg/kg, iv measured for 24 hrs; type: organism-based; conditions: in vivo
Acinetobacter baumannii [30] = assay: In vivo antibacterial activity against Acinetobacter baumannii ATCC19606 infected in BALB/c mouse assessed as survival at 15 mg/kg, ip administered for 12 hrs and measured on day 7; type: functional; conditions: ATCC19606, 168 h, time 7 day
Acinetobacter baumannii [31] = assay: In vivo antibacterial activity against Acinetobacter baumannii ATCC19606 infected in BALB/c mouse assessed as reduction in bacterial load at 15 mg/kg, ip; type: functional, organism-based; conditions: time 3.0 hrs
Acinetobacter baumannii [32] = assay: In vivo antibacterial activity against Acinetobacter baumannii ATCC19606 infected in BALB/c mouse assessed as reduction in bacterial load in liver at 15 mg/kg, ip measured after 3 hrs; type: functional, organism-based
Acinetobacter baumannii [33] = assay: In vivo antibacterial activity against Acinetobacter baumannii ATCC19606 infected in BALB/c mouse assessed as reduction in bacterial load in kidney at 15 mg/kg, ip measured after 3 hrs; type: functional, organism-based
Acinetobacter baumannii [34] = assay: In vivo antibacterial activity against Acinetobacter baumannii ATCC19606 infected in BALB/c mouse assessed as reduction in bacterial load in liver at 15 mg/kg, ip measured after 12 hrs; type: functional, organism-based
Acinetobacter baumannii [35] = assay: In vivo antibacterial activity against Acinetobacter baumannii ATCC19606 infected in BALB/c mouse assessed as reduction in bacterial load in lung at 15 mg/kg, ip measured after 12 hrs; type: functional, organism-based
Acinetobacter baumannii [36] = assay: In vivo antibacterial activity against Acinetobacter baumannii ATCC19606 infected in BALB/c mouse assessed as reduction in bacterial load in kidney at 15 mg/kg, ip measured after 12 hrs; type: functional, organism-based

In the case of `CC[C@H](C)[C@H](NC(=O)[C@H](CCCN)NC(=O)[C@H](CO)NC(=O)[C@H](Cc1c[nH]cn1)NC(=O)[C@H](CCCN)NC(=O)[C@H](CC(C)C)NC(=O)[C@@H](NC(=O)[C@H](CCCN)NC(=O)CNC(=O)[C@H](CC(C)C)NC(=O)[C@H](CCC(N)=O)NC(=O)[C@H](CCCN)NC(=O)[C@H](CCCN)NC(=O)[C@@H](NC(=O)[C@H](CCCN)NC(=O)[C@H](CCCN)NC(=O)[C@@H](N)Cc1ccccc1)C(C)C)C(C)C)C(=O)N[C@H](C(=O)N[C@H](C(=O)NCC(=O)NCC(=O)N[C@@H](CCCN)C(=O)N[C@@H](CCSC)C(=O)N[C@@H](CCCN)C(=O)N[C@@H](Cc1ccccc1)C(=O)O)C(C)C)[C@@H](C)O` (H-F[Orn][Orn]V[Orn][Orn]QLG[Orn]VL[Orn]HS[Orn]ITVGG[Orn]M[Orn]F-OH), the MIC (Enterococcus faecium) is reported as 9.38 mg/L, the MIC (Escherichia coli [1]) is reported as 18.8 mg/L and the MIC (Pseudomonas aeruginosa) is reported as 75 mg/L. It also gave an MIC (Staphylococcus aureus [2]) of 75 mg/L, an MIC (Clostridium perfringens) of 18.8 mg/L and an MIC (Staphylococcus aureus [3]) greater than 100 mg/L. It also gave an MIC (Enterococcus faecalis) of 18.8 mg/L, an MIC [4] of 18.8 mg/L and an MIC (Staphylococcus aureus [5]) of 37.5 mg/L. The Activity (Peritoneal macrophage [6]) was “Active”, the Activity (Peritoneal macrophage [7]) was “Active” and the Ratio (Acinetobacter baumannii [8]) was 1. For the same compound, the Ratio (Escherichia coli [9]) was 1, the Activity (Staphylococcus aureus [10]) was “Active” and the Activity (Acinetobacter baumannii [11]) was “Active”. The Activity (Staphylococcus aureus [12]) was “Active”, the Activity (Staphylococcus aureus [13]) was 20% and the Activity (Staphylococcus aureus [14]) was 20%. The Activity (Staphylococcus aureus [15]) was 50%, the Activity (Acinetobacter baumannii [16]) was 60% and the Activity (Cell membrane [17]) was “Active”. For the same compound, the Activity (Cell membrane [18]) was “Active”, the “fold change (FC)” value (Staphylococcus aureus [19]) was 32 and the Activity (Escherichia coli [20]) was “Active”. The Activity (Escherichia coli [21]) was “Active”, the Activity (Staphylococcus aureus [22]) was “Dose-dependent-effect” and the Activity (Staphylococcus aureus [23]) was “Active”. It also gave a mortality at 24 h [24] of 0%, a mortality at 24 h [25] of 0% and a mortality at 24 h [26] of 0%. For the same compound, the mortality at 24 h [27] was 0%, the Activity [28] was “Non-toxic” and the Activity [29] was “Non-toxic”. For the same compound, the survival at 15 mg/kg (Acinetobacter baumannii [30]) was 40%, the Activity (Acinetobacter baumannii [31]) was “Time-dependent-effect” and the Activity (Acinetobacter baumannii [32]) was “Active”. The Activity (Acinetobacter baumannii [33]) was “Active”, the Activity (Acinetobacter baumannii [34]) was “Active” and the Activity (Acinetobacter baumannii [35]) was “Active”. For the same compound, the Activity (Acinetobacter baumannii [36]) was “Active”.
